Assay results taken from ChEMBL document CHEMBL3621147, “An azumamide C analogue without the zinc-binding functionality” (Medchemcomm, 2014).
Activity calls are given as the source filed them. The rule behind the calls is not given here.

How the values were obtained:
[1] = Antiproliferative activity against human EB3 cells assessed as growth inhibition incubated for 3 days by MTT assay; type: functional; conditions: EB-3, 72 h
[2] = system: EB-3; conditions: Homo sapiens, at 10 µM
Description: Antiproliferative activity against human EB3 cells at 10 uM incubated for 3 days by MTT assay

[3] = target: T1, Histone deacetylase 3/Nuclear receptor corepressor 2 (HDAC3/NCoR2) (Homo sapiens, UniProt O15379); assay: Inhibition of human recombinant HDAC3/NCoR2 using Ac-Leu-Gly-Lys (Ac)-AMC substrate incubated for 45 mins by fluorescence assay based continuous assay protocol; type: protein-complex assay
[4] = target: T1, Histone deacetylase 3/Nuclear receptor corepressor 2 (HDAC3/NCoR2); assay: Inhibition of human recombinant HDAC3/NCoR2 using Ac-Leu-Gly-Lys (Ac)-AMC substrate incubated for 30 mins by fluorescence assay; type: protein-complex assay
[5] = target: T2, Histone deacetylase 11 (Homo sapiens, UniProt Q96DB2); assay: Inhibition of human recombinant HDAC11 using Ac-Leu-Gly-Lys (Ac)-AMC substrate incubated for 30 mins by fluorescence assay
T2 sequence (Q96DB2 whole entry): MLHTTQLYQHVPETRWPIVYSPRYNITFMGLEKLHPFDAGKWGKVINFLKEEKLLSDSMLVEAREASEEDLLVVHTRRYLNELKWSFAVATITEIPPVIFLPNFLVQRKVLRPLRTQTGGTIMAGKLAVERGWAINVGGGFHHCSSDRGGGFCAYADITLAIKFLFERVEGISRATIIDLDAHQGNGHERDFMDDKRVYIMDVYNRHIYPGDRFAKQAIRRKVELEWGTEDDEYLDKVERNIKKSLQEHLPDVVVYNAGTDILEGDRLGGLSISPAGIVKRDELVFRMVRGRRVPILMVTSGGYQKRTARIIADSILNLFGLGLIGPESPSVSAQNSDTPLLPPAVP

[6] = target: Histone deacetylase 2 (Homo sapiens, UniProt Q92769); assay: Inhibition of human recombinant HDAC2 using Ac-Leu-Gly-Lys (Ac)-AMC substrate incubated for 30 mins by fluorescence assay
[7] = target: Histone deacetylase 1 (Homo sapiens, UniProt Q13547); assay: Inhibition of human recombinant HDAC1 using Ac-Leu-Gly-Lys (Ac)-AMC substrate incubated for 30 mins by fluorescence assay
[8] = target: T3, Polyamine deacetylase HDAC10 (Homo sapiens, UniProt Q969S8); assay: Inhibition of human recombinant HDAC10 using Ac-Arg-His-Lys (Ac)-Lys (Ac)-AMC substrate incubated for 30 mins by fluorescence assay
T3 sequence (Q969S8 whole entry): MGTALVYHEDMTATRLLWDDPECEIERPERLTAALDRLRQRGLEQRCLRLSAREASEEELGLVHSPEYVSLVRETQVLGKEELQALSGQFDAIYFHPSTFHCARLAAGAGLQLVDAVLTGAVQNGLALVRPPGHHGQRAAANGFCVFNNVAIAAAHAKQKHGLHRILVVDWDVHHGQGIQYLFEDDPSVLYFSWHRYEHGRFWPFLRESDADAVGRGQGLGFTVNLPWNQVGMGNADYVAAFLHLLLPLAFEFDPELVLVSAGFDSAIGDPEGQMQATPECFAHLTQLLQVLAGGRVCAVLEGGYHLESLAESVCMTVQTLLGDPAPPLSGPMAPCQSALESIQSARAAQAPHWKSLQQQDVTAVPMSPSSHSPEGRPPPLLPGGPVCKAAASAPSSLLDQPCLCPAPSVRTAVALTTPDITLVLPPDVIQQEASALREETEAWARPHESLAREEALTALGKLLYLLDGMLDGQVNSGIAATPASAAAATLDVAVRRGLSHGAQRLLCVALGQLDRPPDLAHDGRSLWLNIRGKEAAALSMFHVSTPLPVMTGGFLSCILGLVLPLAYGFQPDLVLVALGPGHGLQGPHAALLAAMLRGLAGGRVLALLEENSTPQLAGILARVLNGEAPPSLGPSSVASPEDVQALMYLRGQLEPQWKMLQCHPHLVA

[9] = target: Histone deacetylase 4 (Homo sapiens) (UniProt P56524); assay: Inhibition of human recombinant HDAC4 using Ac-Leu-Gly-Lys (Tfa)-AMC substrate incubated for 30 mins by fluorescence assay
[10] = target: T4, Protein deacetylase HDAC6 (Homo sapiens) (UniProt Q9UBN7); assay: Inhibition of human recombinant HDAC6 using Ac-Leu-Gly-Lys (Ac)-AMC substrate incubated for 30 mins by fluorescence assay
T4 sequence (whole entry): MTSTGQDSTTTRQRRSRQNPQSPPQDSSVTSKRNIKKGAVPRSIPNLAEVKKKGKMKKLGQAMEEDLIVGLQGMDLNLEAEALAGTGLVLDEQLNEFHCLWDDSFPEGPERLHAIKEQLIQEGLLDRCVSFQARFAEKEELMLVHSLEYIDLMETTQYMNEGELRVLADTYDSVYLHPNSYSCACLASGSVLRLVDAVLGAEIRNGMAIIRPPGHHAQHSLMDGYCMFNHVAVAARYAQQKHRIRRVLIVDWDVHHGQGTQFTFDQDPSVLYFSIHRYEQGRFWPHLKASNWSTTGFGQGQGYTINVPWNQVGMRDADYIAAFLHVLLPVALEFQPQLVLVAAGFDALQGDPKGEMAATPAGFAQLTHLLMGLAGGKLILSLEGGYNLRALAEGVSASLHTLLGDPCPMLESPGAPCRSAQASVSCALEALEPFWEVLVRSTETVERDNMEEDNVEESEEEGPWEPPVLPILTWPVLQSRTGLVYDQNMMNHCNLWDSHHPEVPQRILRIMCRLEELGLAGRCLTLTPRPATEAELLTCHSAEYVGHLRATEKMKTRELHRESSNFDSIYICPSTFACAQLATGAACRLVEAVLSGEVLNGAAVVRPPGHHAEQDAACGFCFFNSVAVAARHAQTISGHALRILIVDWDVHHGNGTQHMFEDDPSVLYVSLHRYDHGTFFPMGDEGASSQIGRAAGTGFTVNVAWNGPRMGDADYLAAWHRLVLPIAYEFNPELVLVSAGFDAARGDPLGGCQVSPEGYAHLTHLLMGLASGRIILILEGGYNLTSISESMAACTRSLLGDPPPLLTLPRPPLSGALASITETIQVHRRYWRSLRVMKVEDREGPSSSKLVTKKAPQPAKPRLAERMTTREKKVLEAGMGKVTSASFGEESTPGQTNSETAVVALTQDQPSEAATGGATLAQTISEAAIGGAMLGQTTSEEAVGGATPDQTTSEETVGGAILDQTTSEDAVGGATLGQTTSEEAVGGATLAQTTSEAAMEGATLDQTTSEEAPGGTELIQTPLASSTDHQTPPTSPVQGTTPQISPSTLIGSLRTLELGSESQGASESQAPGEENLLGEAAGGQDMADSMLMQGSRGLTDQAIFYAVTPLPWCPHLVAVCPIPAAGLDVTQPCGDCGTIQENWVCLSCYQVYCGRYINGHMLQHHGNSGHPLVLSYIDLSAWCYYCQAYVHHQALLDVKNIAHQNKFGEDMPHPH

[11] = target: T5, Histone deacetylase 7 (Homo sapiens) (UniProt Q8WUI4); assay: Inhibition of human recombinant HDAC7 using Ac-Leu-Gly-Lys (Tfa)-AMC substrate incubated for 30 mins by fluorescence assay
T5 sequence (whole entry): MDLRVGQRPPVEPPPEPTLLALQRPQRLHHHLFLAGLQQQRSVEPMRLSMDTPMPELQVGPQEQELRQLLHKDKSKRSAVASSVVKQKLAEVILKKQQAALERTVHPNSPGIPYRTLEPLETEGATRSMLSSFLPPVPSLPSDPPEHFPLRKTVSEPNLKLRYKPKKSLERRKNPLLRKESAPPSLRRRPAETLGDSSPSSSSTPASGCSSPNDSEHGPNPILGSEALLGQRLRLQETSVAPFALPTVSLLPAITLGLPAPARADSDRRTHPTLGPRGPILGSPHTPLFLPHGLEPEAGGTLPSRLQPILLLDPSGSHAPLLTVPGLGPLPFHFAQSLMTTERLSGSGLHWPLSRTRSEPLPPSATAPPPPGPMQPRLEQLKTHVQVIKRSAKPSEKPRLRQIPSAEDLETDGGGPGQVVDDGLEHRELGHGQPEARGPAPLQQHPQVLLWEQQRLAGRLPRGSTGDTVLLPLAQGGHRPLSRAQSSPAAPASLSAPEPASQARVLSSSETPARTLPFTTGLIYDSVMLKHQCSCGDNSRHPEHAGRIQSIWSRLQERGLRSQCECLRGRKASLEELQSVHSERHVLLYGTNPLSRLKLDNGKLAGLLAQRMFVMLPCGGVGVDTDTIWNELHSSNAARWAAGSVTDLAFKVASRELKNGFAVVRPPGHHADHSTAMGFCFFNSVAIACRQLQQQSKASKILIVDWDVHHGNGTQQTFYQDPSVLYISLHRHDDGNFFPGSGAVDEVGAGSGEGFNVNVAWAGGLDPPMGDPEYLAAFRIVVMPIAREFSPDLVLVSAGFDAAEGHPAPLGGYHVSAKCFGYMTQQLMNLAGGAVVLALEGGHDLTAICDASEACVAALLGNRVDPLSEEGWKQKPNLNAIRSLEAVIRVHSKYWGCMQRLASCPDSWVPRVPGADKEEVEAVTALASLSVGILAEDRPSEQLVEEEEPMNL

[12] = target: T6, Histone deacetylase 8 (Homo sapiens) (UniProt Q9BY41); assay: Inhibition of human recombinant HDAC8 using Ac-Leu-Gly-Lys (Tfa)-AMC substrate incubated for 30 mins by fluorescence assay
T6 sequence (whole entry): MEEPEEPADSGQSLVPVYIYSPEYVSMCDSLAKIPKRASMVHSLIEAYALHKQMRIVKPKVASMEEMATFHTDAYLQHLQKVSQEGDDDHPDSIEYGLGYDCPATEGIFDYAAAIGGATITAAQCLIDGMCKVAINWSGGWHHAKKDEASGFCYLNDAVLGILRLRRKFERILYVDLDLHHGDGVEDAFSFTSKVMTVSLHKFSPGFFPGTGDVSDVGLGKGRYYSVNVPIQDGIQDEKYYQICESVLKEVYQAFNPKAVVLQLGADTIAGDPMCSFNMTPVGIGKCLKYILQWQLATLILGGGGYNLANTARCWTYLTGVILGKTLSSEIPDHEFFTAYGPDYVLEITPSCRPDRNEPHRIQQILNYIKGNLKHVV

[13] = target: Histone deacetylase 5 (Homo sapiens) (UniProt Q9UQL6); assay: Inhibition of human recombinant HDAC5 using Ac-Leu-Gly-Lys (Tfa)-AMC substrate incubated for 30 mins by fluorescence assay
[14] = target: Histone deacetylase 9 (Homo sapiens) (UniProt Q9UKV0); assay: Inhibition of human recombinant HDAC9 using Ac-Leu-Gly-Lys (Tfa)-AMC substrate incubated for 30 mins by fluorescence assay
Histone deacetylase 9 (Homo sapiens), sequence (Q9UKV0 whole entry): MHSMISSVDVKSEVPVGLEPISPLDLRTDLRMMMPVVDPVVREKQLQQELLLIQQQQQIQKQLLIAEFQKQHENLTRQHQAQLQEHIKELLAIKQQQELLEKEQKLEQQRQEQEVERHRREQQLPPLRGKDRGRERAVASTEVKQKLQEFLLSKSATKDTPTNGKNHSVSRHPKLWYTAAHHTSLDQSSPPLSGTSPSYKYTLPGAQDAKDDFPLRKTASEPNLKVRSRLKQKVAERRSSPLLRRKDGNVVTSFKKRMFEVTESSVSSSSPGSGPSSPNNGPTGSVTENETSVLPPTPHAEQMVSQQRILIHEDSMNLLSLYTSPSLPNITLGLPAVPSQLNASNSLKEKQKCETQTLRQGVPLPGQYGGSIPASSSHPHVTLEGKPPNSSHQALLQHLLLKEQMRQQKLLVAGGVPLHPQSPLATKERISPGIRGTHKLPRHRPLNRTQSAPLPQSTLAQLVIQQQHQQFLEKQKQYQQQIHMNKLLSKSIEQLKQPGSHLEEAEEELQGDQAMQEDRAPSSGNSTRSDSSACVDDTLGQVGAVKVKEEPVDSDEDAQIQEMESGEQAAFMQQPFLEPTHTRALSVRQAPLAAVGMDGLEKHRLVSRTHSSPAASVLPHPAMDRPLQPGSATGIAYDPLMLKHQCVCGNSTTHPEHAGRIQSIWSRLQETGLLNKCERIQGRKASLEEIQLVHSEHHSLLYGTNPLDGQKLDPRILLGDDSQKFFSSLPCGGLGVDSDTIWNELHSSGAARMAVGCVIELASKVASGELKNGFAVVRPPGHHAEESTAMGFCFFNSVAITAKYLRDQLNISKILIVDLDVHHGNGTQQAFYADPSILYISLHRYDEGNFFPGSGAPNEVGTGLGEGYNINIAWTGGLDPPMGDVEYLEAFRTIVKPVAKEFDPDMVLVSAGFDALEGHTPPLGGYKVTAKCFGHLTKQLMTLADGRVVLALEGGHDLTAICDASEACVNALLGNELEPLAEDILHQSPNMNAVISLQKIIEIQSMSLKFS

T1 sequence (O15379 whole entry): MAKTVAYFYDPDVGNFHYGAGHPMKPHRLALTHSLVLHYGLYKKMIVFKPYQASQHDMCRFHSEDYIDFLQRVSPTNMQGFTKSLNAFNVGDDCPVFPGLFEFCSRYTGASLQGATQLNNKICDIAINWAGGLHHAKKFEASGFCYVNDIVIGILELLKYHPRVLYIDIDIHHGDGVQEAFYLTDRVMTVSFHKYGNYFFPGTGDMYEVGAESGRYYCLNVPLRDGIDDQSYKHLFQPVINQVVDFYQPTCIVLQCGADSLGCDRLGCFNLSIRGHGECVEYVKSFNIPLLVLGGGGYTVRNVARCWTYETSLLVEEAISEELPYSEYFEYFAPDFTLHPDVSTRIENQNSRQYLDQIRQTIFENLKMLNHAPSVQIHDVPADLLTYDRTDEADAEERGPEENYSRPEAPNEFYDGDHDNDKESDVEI
T1 sequence (Q9Y618 whole entry, further chain): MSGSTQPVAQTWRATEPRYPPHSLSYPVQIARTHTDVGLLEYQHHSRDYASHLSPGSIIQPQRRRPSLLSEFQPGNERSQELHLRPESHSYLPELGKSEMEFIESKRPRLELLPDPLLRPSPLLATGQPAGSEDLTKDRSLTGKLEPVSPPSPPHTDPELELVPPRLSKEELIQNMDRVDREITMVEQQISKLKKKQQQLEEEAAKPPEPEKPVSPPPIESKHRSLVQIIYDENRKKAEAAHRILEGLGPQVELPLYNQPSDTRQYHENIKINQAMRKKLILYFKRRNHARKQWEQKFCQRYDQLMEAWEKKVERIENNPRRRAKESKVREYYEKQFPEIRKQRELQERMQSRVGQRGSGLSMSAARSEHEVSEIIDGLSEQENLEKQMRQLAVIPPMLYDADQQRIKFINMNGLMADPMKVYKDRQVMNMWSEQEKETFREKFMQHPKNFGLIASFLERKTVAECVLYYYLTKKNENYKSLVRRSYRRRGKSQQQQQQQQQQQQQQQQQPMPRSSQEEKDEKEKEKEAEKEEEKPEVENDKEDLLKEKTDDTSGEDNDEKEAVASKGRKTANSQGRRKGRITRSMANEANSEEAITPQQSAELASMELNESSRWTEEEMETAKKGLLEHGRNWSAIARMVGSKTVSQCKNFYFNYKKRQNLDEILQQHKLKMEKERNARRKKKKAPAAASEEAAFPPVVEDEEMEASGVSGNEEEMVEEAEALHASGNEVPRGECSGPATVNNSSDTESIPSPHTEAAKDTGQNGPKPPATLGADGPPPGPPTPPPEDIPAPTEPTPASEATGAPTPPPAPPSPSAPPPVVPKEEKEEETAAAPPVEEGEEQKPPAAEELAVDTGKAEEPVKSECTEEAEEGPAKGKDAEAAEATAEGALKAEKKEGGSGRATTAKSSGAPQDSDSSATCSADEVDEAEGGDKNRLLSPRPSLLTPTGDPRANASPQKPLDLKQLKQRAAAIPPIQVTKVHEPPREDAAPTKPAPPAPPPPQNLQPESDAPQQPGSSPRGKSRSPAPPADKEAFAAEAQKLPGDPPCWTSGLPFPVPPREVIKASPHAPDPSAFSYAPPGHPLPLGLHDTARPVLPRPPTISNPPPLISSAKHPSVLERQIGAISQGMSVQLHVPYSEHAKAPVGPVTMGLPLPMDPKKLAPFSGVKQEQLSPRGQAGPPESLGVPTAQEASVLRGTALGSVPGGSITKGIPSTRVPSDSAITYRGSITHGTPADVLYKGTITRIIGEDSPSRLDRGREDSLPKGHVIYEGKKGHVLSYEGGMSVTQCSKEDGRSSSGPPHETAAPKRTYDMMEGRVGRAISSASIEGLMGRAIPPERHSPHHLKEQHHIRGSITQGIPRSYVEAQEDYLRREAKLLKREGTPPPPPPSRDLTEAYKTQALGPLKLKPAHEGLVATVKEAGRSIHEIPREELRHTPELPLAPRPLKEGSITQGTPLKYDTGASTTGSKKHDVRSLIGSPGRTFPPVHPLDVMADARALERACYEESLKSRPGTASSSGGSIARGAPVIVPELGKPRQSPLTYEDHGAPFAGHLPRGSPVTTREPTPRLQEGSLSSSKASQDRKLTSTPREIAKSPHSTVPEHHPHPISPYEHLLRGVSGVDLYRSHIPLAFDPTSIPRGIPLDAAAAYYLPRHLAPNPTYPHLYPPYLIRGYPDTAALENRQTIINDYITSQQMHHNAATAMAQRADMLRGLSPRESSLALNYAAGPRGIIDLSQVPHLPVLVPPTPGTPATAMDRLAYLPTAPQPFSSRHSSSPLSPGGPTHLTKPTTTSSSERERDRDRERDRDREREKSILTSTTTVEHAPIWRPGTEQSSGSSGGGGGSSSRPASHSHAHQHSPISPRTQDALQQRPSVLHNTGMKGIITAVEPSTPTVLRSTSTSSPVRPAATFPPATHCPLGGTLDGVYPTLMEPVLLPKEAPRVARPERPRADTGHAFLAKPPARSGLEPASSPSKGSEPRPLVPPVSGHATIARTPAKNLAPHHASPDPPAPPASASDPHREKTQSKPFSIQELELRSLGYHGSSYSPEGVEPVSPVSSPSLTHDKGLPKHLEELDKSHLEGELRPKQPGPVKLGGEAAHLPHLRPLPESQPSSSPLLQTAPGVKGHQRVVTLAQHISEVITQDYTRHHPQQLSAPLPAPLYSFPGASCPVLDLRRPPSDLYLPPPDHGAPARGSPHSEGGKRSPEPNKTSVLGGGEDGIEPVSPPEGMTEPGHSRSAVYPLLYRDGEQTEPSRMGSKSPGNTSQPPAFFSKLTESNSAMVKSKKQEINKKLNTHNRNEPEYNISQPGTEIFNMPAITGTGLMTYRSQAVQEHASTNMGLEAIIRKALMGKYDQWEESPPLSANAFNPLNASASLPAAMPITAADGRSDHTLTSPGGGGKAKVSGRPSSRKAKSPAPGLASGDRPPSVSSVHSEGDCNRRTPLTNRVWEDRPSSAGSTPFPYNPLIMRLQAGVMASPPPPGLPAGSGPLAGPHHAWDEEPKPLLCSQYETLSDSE
Histone deacetylase 2, sequence (Q92769 whole entry): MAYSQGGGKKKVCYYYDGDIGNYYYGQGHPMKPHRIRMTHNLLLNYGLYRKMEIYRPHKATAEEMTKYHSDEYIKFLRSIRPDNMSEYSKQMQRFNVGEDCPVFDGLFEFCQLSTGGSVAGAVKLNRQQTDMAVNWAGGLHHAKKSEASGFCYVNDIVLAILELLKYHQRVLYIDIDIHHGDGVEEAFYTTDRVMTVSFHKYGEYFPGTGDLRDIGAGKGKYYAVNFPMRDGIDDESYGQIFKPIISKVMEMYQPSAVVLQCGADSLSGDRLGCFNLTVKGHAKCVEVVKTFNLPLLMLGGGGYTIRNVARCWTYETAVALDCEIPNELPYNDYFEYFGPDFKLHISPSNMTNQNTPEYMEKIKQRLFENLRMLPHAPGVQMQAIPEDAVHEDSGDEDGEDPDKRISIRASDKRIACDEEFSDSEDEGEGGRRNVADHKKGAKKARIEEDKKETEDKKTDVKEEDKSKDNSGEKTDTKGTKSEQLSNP
Histone deacetylase 1, sequence (Q13547 whole entry): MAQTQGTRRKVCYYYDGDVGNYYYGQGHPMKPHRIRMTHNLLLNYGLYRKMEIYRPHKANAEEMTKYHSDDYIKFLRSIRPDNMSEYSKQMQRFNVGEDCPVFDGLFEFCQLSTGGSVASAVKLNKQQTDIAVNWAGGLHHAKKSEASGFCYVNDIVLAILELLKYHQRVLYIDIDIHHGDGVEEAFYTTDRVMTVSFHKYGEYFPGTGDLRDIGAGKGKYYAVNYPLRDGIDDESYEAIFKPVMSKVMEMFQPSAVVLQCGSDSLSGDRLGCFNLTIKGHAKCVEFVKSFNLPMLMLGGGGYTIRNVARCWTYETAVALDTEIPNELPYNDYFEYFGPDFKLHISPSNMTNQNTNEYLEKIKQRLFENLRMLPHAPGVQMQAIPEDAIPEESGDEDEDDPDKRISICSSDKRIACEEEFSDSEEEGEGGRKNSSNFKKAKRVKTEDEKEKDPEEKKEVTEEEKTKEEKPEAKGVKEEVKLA

## CC(C)[C@H]1NC(=O)[C@@H](C)[C@@H](C/C=C\CCC(N)=O)NC(=O)[C@@H](Cc2ccc(O)cc2)NC(=O)[C@@H](C)NC1=O [AZUMAMIDE B]
[1]
  GI50: > 50000 nM
[2]
  inhibition: inactive

## CCC(=O)CCCCC[C@@H]1NC(=O)[C@H]2CCCCN2C(=O)[C@H]([C@@H](C)CC)NC(=O)[C@H](Cc2cn(OC)c3ccccc23)NC1=O [APICIDIN]
[1]
  GI50: 800 nM
[2]
  inhibition: Active

## CC(C)[C@H]1NC(=O)[C@@H](C)[C@@H](C/C=C\CCC(=O)O)NC(=O)[C@@H](Cc2ccc(O)cc2)NC(=O)[C@@H](C)NC1=O [AZUMAMIDE C]
[3]
  Ki: 9.67 nM
[1]
  GI50: > 25000 nM
[4]
  Ki: 18 nM
[2]
  inhibition: inactive
[5]
  Ki: 60 nM
[6]
  Ki: 10 nM
[7]
  Ki: 20 nM
[8]
  Ki: 20 nM

## CCC[C@H]1NC(=O)[C@@H](Cc2ccc(O)cc2)NC(=O)[C@@H](C)NC(=O)[C@@H](C(C)C)NC(=O)[C@H]1C
[3]
  Ki: 780 nM
[1]
  GI50: > 50000 nM
[9]
  inhibition: inactive
[10]
  inhibition: inactive
[11]
  inhibition: inactive
[12]
  inhibition: inactive
[4]
  Ki: 3000 nM
[13]
  inhibition: inactive
[2]
  inhibition: inactive
[14]
  inhibition: inactive
[5]
  Ki: 6000 nM
[6]
  Ki: 1400 nM
[7]
  Ki: 2400 nM
[8]
  Ki: 4000 nM
